Results taken from patent US20240294533A1, “2-(HET)ARYL-SUBSTITUTED CONDENSED HETEROCYCLE DERIVATIVES AS PEST CONTROL AGENTS” (Bayer Aktiengesellschaft, priority 2021, published 2024).

Experiments:
Format in all cases: in vivo
Diabrotica balteata = Diabrotica balteata drench test; settings: 20 ppm, soil drench, maize, after 8 days
Description: Diabrotica balteata—Drench Test Solvent: 7 parts by weight of dimethylformamide Emulsifier: 2 parts by weight of alkylaryl polyglycol ether An appropriate active ingredient formulation is produced by mixing 1 part by weight of active ingredient with the specified amounts of solvent and emulsifier, and diluting the concentrate to the desired concentration with water, it being necessary to take account of the volume of soil which is drenched. It should be ensured that a concentration of 40 ppm of emulsifier in the soil is not exceeded. Further test concentrations are produced by diluting with water. 5 […] (Zea mays) in each case are sown into pots filled with earth, and the next day the pots are watered with the active ingredient preparation of the desired concentration. After one day, about 25 L2 larvae of the banded cucumber beetle (Diabrotica balteata) are added. After 8 days, efficacy in % is determined. 100% means that all 5 plants have germinated and grown; 0% means that none of the plants has emerged.

Nezara viridula = Nezara viridula spray test (infected barley plants sprayed); settings: 100 g ai/ha, after 4 days
Description: Nezara viridula—Spray Test Solvent: 52.5 parts by weight of acetone • 7 parts by weight of dimethylformamide Emulsifier: alkylaryl polyglycol ether An appropriate active ingredient formulation is produced by dissolving 1 part by weight of active ingredient with the stated parts by weight of solvent and making the solution up to the desired concentration with water containing an emulsifier concentration of 1000 ppm. Further test concentrations are produced by diluting the formulation with emulsifier-containing water. If the addition of ammonium salts or/and penetrants is required, these are each added in a concentration of 1000 ppm to the formulation solution. Barley plants (Hordeum vulgare) infected with larvae of the Southern green shield bug (Nezara viridula) are sprayed with an active ingredient formulation of the desired concentration. After 4 days, efficacy in % is determined. 100% means that all of the shield bugs have been killed; 0% means that none of the shield bugs have been killed.

Spodoptera frugiperda [1] = assay: Spodoptera frugiperda spray test (maize leaf discs); settings: Spodoptera frugiperda, foliar, 168 h, after 7 days, read-out: efficacy
Procedure, shortened: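 Maize leaf discs sprayed with compound formulated in acetone/DMF with alkylaryl polyglycol ether emulsifier (1000 ppm) in water, then infested with fall armyworm caterpillars after drying. Efficacy (% caterpillars killed) scored after 7 days; 100% means all killed, 0% none.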

Spodoptera frugiperda [2] = assay: Spodoptera frugiperda spray test (SPODFR), comparative; settings: 168 h, cotton leaves, after 7 days, read-out: % Efficacy
Description: Spodoptera frugtiperda—Spray Test (SPODFR) Solvent: 14 parts by weight of dimethylformamide Emulsifier: alkylaryl polyglycol ether An appropriate active ingredient formulation is produced by dissolving 1 part by weight of active ingredient with the stated parts by weight of solvent and making the solution up to the desired concentration with water containing an emulsifier concentration of 1000 ppm. Further test concentrations are produced by diluting the formulation with emulsifier-containing water. If the addition of ammonium salts or/and penetrants is required, these are each added in a concentration of 1000 ppm to the formulation solution. Cotton leaves (Gossypium hirsutum) are sprayed with an active ingredient formulation of the desired concentration and populated with caterpillars of the armyworm (Spodoptera frugiperda). After 7 days, the kill in % is determined. 100% means that all caterpillars have been killed; 0% means that none of the caterpillars have been killed.

Plutella xylostella = Plutella xylostella spray test (PLUTMA), comparative; settings: 168 h, 0.16 ppm, cabbage leaves, after 7 days
Description: Plutella xylostella Spray Test (PLUTMA) Solvent: 14 parts by weight of dimethylformamide Emulsifier: alkylaryl polyglycol ether An appropriate active ingredient formulation is produced by dissolving 1 part by weight of active ingredient with the stated parts by weight of solvent and making the solution up to the desired concentration with water containing an emulsifier concentration of 1000 ppm. Further test concentrations are produced by diluting the formulation with emulsifier-containing water. If the addition of ammonium salts or/and penetrants is required, these are each added in a concentration of 1000 ppm to the formulation solution. Cabbage leaves (Brassica oleracea) are sprayed with an active ingredient formulation of the desired concentration and infected with larvae of the diamondback moth (Plutella xylostella). After 7 days, the kill in % is determined. 100% means that all caterpillars have been killed; 0% means that none of the caterpillars have been killed.

Myzus persicae = Myzus persicae oral test; settings: 4 ppm, after 5 days
Protocol: Myzus persicae—Oral Test Solvent: 100 parts by weight of acetone An appropriate active ingredient formulation is produced by dissolving 1 part by weight of active ingredient with the specified parts by weight of solvent and making the solution up to the desired concentration with water. 50 μl of the active ingredient formulation is transferred into microtitre plates and made up to a final volume of 200 μl with 150 μl of IPL41 insect medium (33%+15% sugar). Subsequently, the plates are sealed with parafilm, which a mixed population of green peach aphids (Myzus persicae) within a second microtitre plate is able to puncture and imbibe the solution. After 5 days, efficacy in % is determined. 100% means that all the aphids have been killed; 0% means that no aphids have been killed.

Boophilus microplus = Boophilus microplus injection test; settings: 20 μg/tick, after 7 days, laying of fertile eggs
Protocol: Boophilus microplus—Injection Test Solvent: dimethyl sulfoxide An appropriate active ingredient formulation is produced by mixing 10 mg of active ingredient with 0.5 ml of solvent and diluting the concentrate with solvent to the desired concentration. 1 μl of the active ingredient solution is injected into the abdomen of 5 engorged adult female cattle ticks (Boophilus microplus). The ticks are transferred into dishes and kept in a climate-controlled room. Efficacy is checked after 7 days by laying of fertile eggs. Eggs which are not visibly fertile are stored in a climate-controlled cabinet until the larvae hatch after about 42 days. Efficacy of 100% means that none of the ticks has laid any fertile eggs; 0% means that all the eggs are fertile.

Phaedon cochleariae = Phaedon cochleariae spray test; settings: 100 g/ha, Chinese cabbage leaf discs, after 7 days
Description: Phaedon cochleariae—Spray Test
Solvent: 78.0 parts by weight of acetone • • 1.5 parts by weight of dimethylformamide
Emulsifier: alkylaryl polyglycol ether
An appropriate active ingredient formulation is produced by dissolving 1 part by weight of active ingredient with the stated parts by weight of solvent and making the solution up to the desired concentration with water containing an emulsifier concentration of 1000 ppm. Further test concentrations are produced by diluting the formulation with emulsifier-containing water.
Discs of Chinese cabbage leaves (Brassica pekinensis) are sprayed with an active ingredient formulation of the desired concentration and, after drying, populated with larvae of the mustard beetle (Phaedon cochleariae).
After 7 days, efficacy in % is determined. 100% means that all the beetle larvae have been killed; 0% means that no beetle larvae have been killed.

CCS(=O)(=O)c1ccc(-n2ncn(-c3ccc(Cl)cc3)c2=O)nc1-c1nc2cc(C(F)(F)C(F)(F)F)cnc2n1C [Example I-23]
90%: efficacy at 0.16 ppm (Plutella xylostella) | efficacy (Boophilus microplus)
100%: efficacy (Diabrotica balteata) | efficacy (Nezara viridula) | pest or weed control at 100 g/ha (Spodoptera frugiperda [1]) | Emax at 0.8 ppm (Spodoptera frugiperda [2]) | efficacy (Myzus persicae) | efficacy (Phaedon cochleariae)
